Literature values as cited in patent US9493497B2, “Carbamate glycolipid and use thereof” (RIKEN, priority 2012, dated 2016).

What was measured:
[1] = not given; remark: listed apart in the source

CCCCCCCCCCCCCCCCCCCCCCCCCC(=O)N[C@@H](CO[C@H]1OC(CO)[C@H](O)C(O)C1O)[C@H](O)[C@H](O)CCCCCCCCCCCCCC (stereo partly shown) [KRN7000]
anti-tumor activity (tumor): extremely strong anti-tumor activity

CCCCCCCC/C=C\CCCCCCCCCCCCCC(=O)N[C@@H](CO[C@H]1OC(CNC(C)=O)[C@H](O)[C@H](O)C1O)[C@H](O)[C@H](O)CCCCCCCCCCCCCC (stereo partly shown) [PBS-57]
solubility in DMSO: improved solubility in DMSO

CCCCCCCCCCCCCCCCCCCCCCCCCC(=O)N[C@@H](CO[C@H]1CC(CO)[C@H](O)[C@H](O)C1O)[C@H](O)[C@H](O)CCCCCCCCCCCCCC (stereo partly shown) [RCAI-56]
NKT cell activation / IFN-γ production induction (NKT cells): strongly activates NKT cells and induces production of a large amount of IFN-γ

CCCCCCCCCCCCCCCCCCCCCCCCCC(=O)N[C@@H](CO[C@H]1O[C@H](COC)[C@H](O)[C@H](O)[C@H]1O)[C@H](O)[C@H](O)CCCCCCCCCCCCCC [RCAI-61]
NKT cell activation / IFN-γ production induction (NKT cells): induces production of IFN-γ in large amounts
solubility in water [1]: low solubility in water

CCCCCCCCCCCCCCCCCCCCCCCCCC(=O)N[C@@H](CC[C@H]1OC(CO)[C@H](O)C(O)C1O)[C@H](O)[C@H](O)CCCCCCCCCCCCCC (stereo partly drawn) [α-C-GalCer]
activation of NKT cells of mouse (NKT cells of mouse): strongly activates NKT cells of mouse and preferentially produces IFN-γ
cytokine production in human NKT cells (human NKT cells): scarcely induces cytokine production
